# What was measured:
# [1] = molecular target: Dual specificity mitogen-activated protein kinase kinase 1 (Homo sapiens) (UniProt Q02750); settings: Compound concentration 1000.0 nM
# [2] = molecular target: Protein kinase C theta type (Homo sapiens) (UniProt Q04759); settings: Compound concentration 1000.0 nM
# [3] = molecular target: 5-hydroxytryptamine receptor 2B (Homo sapiens) (UniProt P41595); settings: Compound concentration 10.0 uM
# [4] = molecular target: Platelet-derived growth factor receptor alpha (Homo sapiens) (UniProt P16234); settings: Compound concentration 1000.0 nM
# [5] = molecular target: Mitogen-activated protein kinase kinase kinase 5 (Homo sapiens) (UniProt Q99683); settings: Compound concentration 1000.0 nM
# [6] = molecular target: Tyrosine-protein kinase JAK1 (Homo sapiens) (UniProt P23458); settings: Compound concentration 1000.0 nM
# Sequence of Tyrosine-protein kinase JAK1 (Homo sapiens) (P23458 whole entry): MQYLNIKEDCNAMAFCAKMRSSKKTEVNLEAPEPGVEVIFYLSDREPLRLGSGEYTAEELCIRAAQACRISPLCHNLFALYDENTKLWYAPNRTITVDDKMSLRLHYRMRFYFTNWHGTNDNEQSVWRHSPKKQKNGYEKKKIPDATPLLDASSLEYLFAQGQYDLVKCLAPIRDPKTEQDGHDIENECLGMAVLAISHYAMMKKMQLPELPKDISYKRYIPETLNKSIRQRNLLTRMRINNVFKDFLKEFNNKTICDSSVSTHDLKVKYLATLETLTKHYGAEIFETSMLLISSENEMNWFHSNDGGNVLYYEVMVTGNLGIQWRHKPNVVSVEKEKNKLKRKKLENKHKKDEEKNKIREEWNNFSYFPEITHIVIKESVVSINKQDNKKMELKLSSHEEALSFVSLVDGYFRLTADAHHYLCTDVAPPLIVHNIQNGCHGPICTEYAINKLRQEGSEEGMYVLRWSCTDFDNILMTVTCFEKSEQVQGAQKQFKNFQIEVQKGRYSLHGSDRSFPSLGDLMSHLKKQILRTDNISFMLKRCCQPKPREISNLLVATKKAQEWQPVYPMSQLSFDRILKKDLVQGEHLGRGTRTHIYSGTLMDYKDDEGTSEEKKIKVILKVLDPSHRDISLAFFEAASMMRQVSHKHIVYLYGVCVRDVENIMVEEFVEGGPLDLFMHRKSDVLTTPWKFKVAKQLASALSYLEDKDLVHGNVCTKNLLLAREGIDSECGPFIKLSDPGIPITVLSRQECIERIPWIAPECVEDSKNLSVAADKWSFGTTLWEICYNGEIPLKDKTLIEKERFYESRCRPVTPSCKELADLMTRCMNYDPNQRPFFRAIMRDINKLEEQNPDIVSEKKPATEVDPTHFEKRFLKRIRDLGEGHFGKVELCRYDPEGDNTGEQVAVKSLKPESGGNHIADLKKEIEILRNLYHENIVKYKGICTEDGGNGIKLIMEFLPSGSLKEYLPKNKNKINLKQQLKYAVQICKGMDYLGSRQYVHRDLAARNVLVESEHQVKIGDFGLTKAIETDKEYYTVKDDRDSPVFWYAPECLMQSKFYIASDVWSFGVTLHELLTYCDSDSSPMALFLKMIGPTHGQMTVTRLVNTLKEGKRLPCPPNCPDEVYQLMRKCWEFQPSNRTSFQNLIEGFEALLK
# [7] = molecular target: Ephrin type-A receptor 1 (Homo sapiens) (UniProt P21709); settings: Compound concentration 1000.0 nM
# [8] = molecular target: Tyrosine-protein kinase JAK2 (Homo sapiens) (UniProt O60674); settings: Compound concentration 1000.0 nM
# [9] = test system: Receptor-type tyrosine-protein kinase FLT3 (Homo sapiens), P36888 [R834Q]; settings: Compound concentration 1000.0 nM
# [10] = molecular target: Ribosomal protein S6 kinase beta-1 (Homo sapiens) (UniProt P23443); settings: Compound concentration 1000.0 nM
# [11] = molecular target: Dual specificity mitogen-activated protein kinase kinase 2 (Homo sapiens) (UniProt P36507); settings: Compound concentration 1000.0 nM
# [12] = molecular target: Ephrin type-B receptor 6 (Homo sapiens) (UniProt O15197); settings: Compound concentration 1000.0 nM
# Sequence of Ephrin type-B receptor 6 (Homo sapiens) (O15197 whole entry): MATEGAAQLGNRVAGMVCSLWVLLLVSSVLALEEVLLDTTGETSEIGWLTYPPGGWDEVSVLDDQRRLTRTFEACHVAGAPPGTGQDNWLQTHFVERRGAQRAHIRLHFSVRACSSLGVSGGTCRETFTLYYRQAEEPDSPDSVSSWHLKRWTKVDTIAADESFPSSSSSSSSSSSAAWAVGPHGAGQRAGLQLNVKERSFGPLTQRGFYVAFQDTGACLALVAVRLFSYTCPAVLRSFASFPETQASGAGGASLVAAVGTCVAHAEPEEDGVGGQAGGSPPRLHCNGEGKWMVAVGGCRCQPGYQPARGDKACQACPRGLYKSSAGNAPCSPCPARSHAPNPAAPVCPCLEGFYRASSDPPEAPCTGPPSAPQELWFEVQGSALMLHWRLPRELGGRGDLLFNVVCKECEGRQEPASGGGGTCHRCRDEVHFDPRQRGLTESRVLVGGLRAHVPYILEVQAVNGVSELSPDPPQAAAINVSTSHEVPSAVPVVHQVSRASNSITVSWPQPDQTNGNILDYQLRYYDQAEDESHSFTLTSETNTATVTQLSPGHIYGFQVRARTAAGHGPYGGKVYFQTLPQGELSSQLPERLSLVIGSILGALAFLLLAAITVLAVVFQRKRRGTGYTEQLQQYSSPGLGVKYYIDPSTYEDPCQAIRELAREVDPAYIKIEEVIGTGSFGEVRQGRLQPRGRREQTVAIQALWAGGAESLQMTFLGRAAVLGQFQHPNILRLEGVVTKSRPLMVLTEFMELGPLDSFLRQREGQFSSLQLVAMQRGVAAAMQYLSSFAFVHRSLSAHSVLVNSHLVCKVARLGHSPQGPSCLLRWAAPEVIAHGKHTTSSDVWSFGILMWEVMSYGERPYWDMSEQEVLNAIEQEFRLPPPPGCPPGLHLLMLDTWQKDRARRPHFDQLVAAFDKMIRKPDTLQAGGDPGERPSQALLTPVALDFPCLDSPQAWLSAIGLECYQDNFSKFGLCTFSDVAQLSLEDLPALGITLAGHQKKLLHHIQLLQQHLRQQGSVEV
# [13] = test system: Tyrosine-protein kinase ABL1 (Homo sapiens), P00519 [F317I]; settings: Compound concentration 1000.0 nM
# Sequence of Tyrosine-protein kinase ABL1 (Homo sapiens), P00519 [F317I] (P00519 whole entry F317I): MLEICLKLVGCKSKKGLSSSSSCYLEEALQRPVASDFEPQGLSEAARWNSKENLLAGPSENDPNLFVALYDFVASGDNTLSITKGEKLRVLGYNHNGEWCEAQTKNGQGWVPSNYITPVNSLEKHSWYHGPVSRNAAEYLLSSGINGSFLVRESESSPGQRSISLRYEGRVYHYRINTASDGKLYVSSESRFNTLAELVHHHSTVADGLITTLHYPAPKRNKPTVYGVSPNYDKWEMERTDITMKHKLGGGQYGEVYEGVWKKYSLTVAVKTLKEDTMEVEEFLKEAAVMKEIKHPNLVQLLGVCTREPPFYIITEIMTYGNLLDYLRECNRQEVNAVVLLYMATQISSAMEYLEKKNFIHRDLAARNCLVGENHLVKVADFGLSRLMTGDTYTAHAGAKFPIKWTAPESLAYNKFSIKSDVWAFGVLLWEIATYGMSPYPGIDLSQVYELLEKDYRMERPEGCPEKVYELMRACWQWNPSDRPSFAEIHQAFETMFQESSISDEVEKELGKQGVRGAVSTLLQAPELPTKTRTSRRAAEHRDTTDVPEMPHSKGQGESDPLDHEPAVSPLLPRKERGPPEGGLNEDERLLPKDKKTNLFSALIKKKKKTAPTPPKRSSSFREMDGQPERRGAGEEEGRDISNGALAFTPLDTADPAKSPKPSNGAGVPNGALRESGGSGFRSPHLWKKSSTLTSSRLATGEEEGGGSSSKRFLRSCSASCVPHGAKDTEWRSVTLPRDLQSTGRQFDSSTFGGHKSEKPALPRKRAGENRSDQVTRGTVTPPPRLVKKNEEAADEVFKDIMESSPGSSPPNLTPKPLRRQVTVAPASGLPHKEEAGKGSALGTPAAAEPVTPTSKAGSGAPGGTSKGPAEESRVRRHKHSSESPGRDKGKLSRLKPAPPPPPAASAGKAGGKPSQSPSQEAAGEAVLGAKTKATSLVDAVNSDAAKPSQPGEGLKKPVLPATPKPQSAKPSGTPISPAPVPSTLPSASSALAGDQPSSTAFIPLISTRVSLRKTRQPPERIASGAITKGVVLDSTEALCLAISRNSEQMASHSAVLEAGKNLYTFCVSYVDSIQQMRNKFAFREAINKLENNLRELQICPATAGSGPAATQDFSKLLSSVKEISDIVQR
# [14] = molecular target: Ribosomal protein S6 kinase alpha-3 (Homo sapiens) (UniProt P51812); settings: Compound concentration 1000.0 nM
# [15] = molecular target: Calcium/calmodulin-dependent protein kinase type II subunit alpha (Homo sapiens) (UniProt Q9UQM7); settings: Compound concentration 1000.0 nM
# [16] = molecular target: Inhibitor of nuclear factor kappa-B kinase subunit alpha (Homo sapiens) (UniProt O15111); settings: Compound concentration 1000.0 nM
# [17] = test system: Phosphatidylinositol 4,5-bisphosphate 3-kinase catalytic subunit alpha isoform (Homo sapiens), P42336 [Q546K]; settings: Compound concentration 1000.0 nM
# [18] = molecular target: Alpha-2C adrenergic receptor (Homo sapiens) (UniProt P18825); settings: Compound concentration 10.0 uM
# [19] = molecular target: TGF-beta receptor type-1 (Homo sapiens) (UniProt P36897); settings: Compound concentration 1000.0 nM
# [20] = molecular target: Rhodopsin kinase GRK1 (Homo sapiens) (UniProt Q15835); settings: Compound concentration 1000.0 nM
# [21] = molecular target: Mitogen-activated protein kinase kinase kinase 9 (Homo sapiens) (UniProt P80192); settings: Compound concentration 1000.0 nM
# Sequence of Mitogen-activated protein kinase kinase kinase 9 (Homo sapiens) (P80192 whole entry, looked up): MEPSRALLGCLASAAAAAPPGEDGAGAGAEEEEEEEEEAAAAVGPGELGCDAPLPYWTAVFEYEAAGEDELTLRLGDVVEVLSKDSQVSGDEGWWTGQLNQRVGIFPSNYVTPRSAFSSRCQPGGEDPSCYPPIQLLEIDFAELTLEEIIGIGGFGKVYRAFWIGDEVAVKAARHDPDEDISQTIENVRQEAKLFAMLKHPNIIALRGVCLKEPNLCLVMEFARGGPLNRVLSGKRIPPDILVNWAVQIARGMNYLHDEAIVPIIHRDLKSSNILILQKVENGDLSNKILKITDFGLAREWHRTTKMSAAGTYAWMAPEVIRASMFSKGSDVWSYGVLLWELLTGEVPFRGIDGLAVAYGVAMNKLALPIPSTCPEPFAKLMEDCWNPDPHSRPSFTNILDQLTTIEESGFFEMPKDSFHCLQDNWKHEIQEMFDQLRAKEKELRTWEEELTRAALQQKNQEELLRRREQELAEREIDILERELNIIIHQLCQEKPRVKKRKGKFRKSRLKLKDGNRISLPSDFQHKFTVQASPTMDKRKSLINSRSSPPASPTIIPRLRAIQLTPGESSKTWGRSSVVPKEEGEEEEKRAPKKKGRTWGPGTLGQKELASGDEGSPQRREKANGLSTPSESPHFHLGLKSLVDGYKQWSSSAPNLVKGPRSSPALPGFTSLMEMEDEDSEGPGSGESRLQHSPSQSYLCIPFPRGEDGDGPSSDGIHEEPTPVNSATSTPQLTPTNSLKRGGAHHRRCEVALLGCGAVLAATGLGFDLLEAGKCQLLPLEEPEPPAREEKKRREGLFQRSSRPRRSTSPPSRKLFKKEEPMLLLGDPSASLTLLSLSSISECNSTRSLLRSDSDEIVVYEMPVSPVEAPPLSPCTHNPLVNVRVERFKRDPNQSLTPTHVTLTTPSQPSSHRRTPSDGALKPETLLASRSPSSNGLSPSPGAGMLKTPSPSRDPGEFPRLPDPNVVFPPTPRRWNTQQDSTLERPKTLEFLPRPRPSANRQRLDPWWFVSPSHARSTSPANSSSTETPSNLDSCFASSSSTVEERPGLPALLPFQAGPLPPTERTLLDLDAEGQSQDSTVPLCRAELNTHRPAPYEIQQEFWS
# [22] = molecular target: Vasoactive intestinal polypeptide receptor 1 (Homo sapiens) (UniProt P32241); test: VPAC1 (VIP1) (h) Eurofins-Cerep binding assay; parameters: ligand concentration 0.04 nM; settings: filed as agonist, Compound concentration 10.0 uM
# [23] = molecular target: Fibroblast growth factor receptor 1 (Homo sapiens) (UniProt P11362); settings: Compound concentration 1000.0 nM
# [24] = molecular target: Serine/threonine-protein kinase PAK 5 (Homo sapiens) (UniProt Q9P286); settings: Compound concentration 1000.0 nM
# [25] = test system: Epidermal growth factor receptor (Homo sapiens), P00533 [UNDEFINED MUTATION]; settings: Compound concentration 1000.0 nM
# [26] = molecular target: Serine/threonine-protein kinase PAK 3 (Homo sapiens) (UniProt O75914); settings: Compound concentration 1000.0 nM
# [27] = molecular target: Mitotic checkpoint serine/threonine-protein kinase BUB1 (Homo sapiens) (UniProt O43683); settings: Compound concentration 1000.0 nM
# [28] = molecular target: Tyrosine-protein kinase Lck (Homo sapiens) (UniProt P06239); settings: Compound concentration 1000.0 nM
# [29] = molecular target: Receptor-interacting serine/threonine-protein kinase 1 (Homo sapiens) (UniProt Q13546); settings: Compound concentration 1000.0 nM
# [30] = molecular target: SNF-related serine/threonine-protein kinase (Homo sapiens) (UniProt Q9NRH2); settings: Compound concentration 1000.0 nM
# [31] = molecular target: Serine/threonine-protein kinase 32B (Homo sapiens) (UniProt Q9NY57); settings: Compound concentration 1000.0 nM
# [32] = molecular target: Serine/threonine-protein kinase TAO2 (Homo sapiens) (UniProt Q9UL54); settings: Compound concentration 1000.0 nM
# [33] = molecular target: Mitogen-activated protein kinase kinase kinase 15 (Homo sapiens) (UniProt Q6ZN16); settings: Compound concentration 1000.0 nM
# [34] = molecular target: Calcium/calmodulin-dependent protein kinase type 1D (Homo sapiens) (UniProt Q8IU85); settings: Compound concentration 1000.0 nM
# Sequence of Calcium/calmodulin-dependent protein kinase type 1D (Homo sapiens) (Q8IU85 whole entry, looked up): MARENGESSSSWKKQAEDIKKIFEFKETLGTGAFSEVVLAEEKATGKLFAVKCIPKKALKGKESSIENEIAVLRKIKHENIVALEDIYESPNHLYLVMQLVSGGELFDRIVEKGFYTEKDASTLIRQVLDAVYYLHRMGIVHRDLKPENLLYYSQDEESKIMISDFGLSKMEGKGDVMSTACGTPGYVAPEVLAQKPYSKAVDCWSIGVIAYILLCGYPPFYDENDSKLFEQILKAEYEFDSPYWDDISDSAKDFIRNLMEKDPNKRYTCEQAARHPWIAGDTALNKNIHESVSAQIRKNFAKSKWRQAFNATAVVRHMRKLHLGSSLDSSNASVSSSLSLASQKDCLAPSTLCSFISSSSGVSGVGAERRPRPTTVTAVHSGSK
# [35] = molecular target: Sigma non-opioid intracellular receptor 1 (Homo sapiens) (UniProt Q99720); settings: Compound concentration 10.0 uM
# Sequence of Sigma non-opioid intracellular receptor 1 (Homo sapiens) (Q99720 whole entry): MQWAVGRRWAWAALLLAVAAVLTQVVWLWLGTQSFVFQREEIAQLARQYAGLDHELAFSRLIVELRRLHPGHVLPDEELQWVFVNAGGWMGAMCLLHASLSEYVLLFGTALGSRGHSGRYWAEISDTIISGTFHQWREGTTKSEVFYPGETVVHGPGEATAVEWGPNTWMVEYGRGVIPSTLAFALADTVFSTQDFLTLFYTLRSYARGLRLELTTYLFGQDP
# [36] = test system: Receptor-type tyrosine-protein kinase FLT3 (Homo sapiens), P36888 [N841I]; settings: Compound concentration 1000.0 nM
# [37] = molecular target: Serine/threonine-protein kinase RIO3 (Homo sapiens) (UniProt O14730); settings: Compound concentration 1000.0 nM
# [38] = molecular target: Type-1 angiotensin II receptor (Homo sapiens) (UniProt P30556); test: AT1 (h) Eurofins-Cerep binding assay; parameters: ligand concentration 0.05 nM; settings: filed as antagonist, Compound concentration 10.0 uM
# [39] = molecular target: Mitogen-activated protein kinase 9 (Homo sapiens) (UniProt P45984); settings: Compound concentration 1000.0 nM
Compound,residual activity [1] [%],residual activity [2] [%],inhibition [3] [%],residual activity [4] [%],residual activity [5] [%],residual activity [6] [%],residual activity [7] [%],residual activity [8] [%],residual activity [9] [%],residual activity [10] [%],residual activity [11] [%],residual activity [12] [%],residual activity [13] [%],residual activity [14] [%],residual activity [15] [%],residual activity [16] [%],residual activity [17] [%],inhibition [18] [%],residual activity [19] [%],residual activity [20] [%],also measured
O=C(NS(=O)(=O)c1ccc(NCC2CCOCC2)c([N+](=O)[O-])c1)c1ccc(N2CCN(Cc3ccc(C(F)(F)F)cc3-c3ccc(Cl)cc3)CC2)cc1Oc1cnc2[nH]ccc2c1 [A-1210227],92,100,-2.34,100,82,100,98,90,80,81,100,82,100,100,87,81,100,12.7,93,100,residual activity [21]: 100%; % Inhibition of Control Specific Binding (Mean n=2) [22]: -57.7%; residual activity [23]: 91%; residual activity [24]: 95%; residual activity [25]: 100%; residual activity [26]: 77%; residual activity [27]: 100%; residual activity [28]: 100%; residual activity [29]: 99%; residual activity [30]: 100%; residual activity [31]: 100%; residual activity [32]: 82%; residual activity [33]: 84%; residual activity [34]: 92%; inhibition [35]: 11.1%; residual activity [36]: 100%; residual activity [37]: 98%; % Inhibition of Control Specific Binding (Mean n=2) [38]: -3.9%; residual activity [39]: 85%
CO[C@H]1CC[C@H](CNc2ccc(S(=O)(=O)NC(=O)c3ccc(N4CCN(CC5=C(c6ccc(Cl)cc6)CC(C)(C)CC5)CC4)cc3Oc3cnc4[nH]ccc4c3)cc2[N+](=O)[O-])CC1 [A-1211212],99,89,3.54,100,78,100,100,89,100,86,100,87,100,100,68,100,100,15.6,84,72,residual activity [21]: 84%; % Inhibition of Control Specific Binding (Mean n=2) [22]: -26.6%; residual activity [23]: 68%; residual activity [24]: 99%; residual activity [25]: 100%; residual activity [26]: 64%; residual activity [27]: 73%; residual activity [28]: 73%; residual activity [29]: 77%; residual activity [30]: 100%; residual activity [31]: 100%; residual activity [32]: 86%; residual activity [33]: 100%; residual activity [34]: 80%; inhibition [35]: 49.8%; residual activity [36]: 100%; residual activity [37]: 100%; % Inhibition of Control Specific Binding (Mean n=2) [38]: 19.3%; residual activity [39]: 82%

# Source: ChEMBL document CHEMBL4507310, “Data for DCP probe A-1211212” (2021)
